Literature values, collected in paper PMC9604775, “Bioactive Peptides from Skipjack Tuna Cardiac Arterial Bulbs: Preparation, Identification, Antioxidant Activity, and Stability against Thermal, pH, and Simulated Gastrointestinal Digestion Treatments” (Marine Drugs, 2022).

Tests used:
Details in all cases: literature value; cited from earlier work
[1] = parameters: method as in 10 sources, ref 24 = [24]; PMID 35127795; doi:10.3389/fnut.2021.813780; 24. Wang J. Wang Y.M. Li L.Y. Chi C.F. Wang B. Twelve antioxidant peptides from protein hydrolysate of Skipjack tuna ( Katsuwonus pelamis ) roe prepared by flavourzyme: Purification, sequence identifi ||| ref 55 = [55]; doi:10.1016/j.jff.2016.06.008; 55. Pan X. Zhao Y.Q. Hu F.Y. Wang B. Preparation and identification of antioxidant peptides from protein hydrolysate of skate (Raja porosa) cartilage J. Funct. Foods 2016 25 220 230 10.1016/j.jff.2016 ||| ref 48 = [48]; PMID 31035632; doi:10.3390/md17050251; 48. Yang X.R. Qiu Y.T. Zhao Y.Q. Chi C.F. Wang B. Purification and characterization of antioxidant peptides derived from protein hydrolysate of the marine bivalve mollusk Tergillarca granosa Mar Drugs ||| ref 15 = [15]; doi:10.1016/j.jff.2018.06.014; 15. Zhao W.H. Luo Q.B. Pan X. Chi C.F. Sun K.L. Wang B. Preparation, identification, and activity evaluation of ten antioxidant peptides from protein hydrolysate of swim bladders of miiuy croaker ( Mi ||| ref 47 = [47]; PMID 35531284; doi:10.3389/fmicb.2022.791248; 47. Sun K. Gao M. Wang Y.Z. Li X.R. Wang P. Wang B. Antioxidant peptides from protein hydrolysate of marine red algae Eucheuma cottonii : Preparation, identification, and cytoprotective mechanisms on ||| ...
[2] = parameters: method as in 10 sources, ref 24 = [24]; PMID 35127795; doi:10.3389/fnut.2021.813780; 24. Wang J. Wang Y.M. Li L.Y. Chi C.F. Wang B. Twelve antioxidant peptides from protein hydrolysate of Skipjack tuna ( Katsuwonus pelamis ) roe prepared by flavourzyme: Purification, sequence identifi ||| ref 43 = [43]; doi:10.1016/j.foodres.2010.02.009; 43. You L. Zhao M. Regenstein J.M. Ren J. Purification and identification of antioxidant peptides from loach ( Misgurnus anguillicaudatus ) protein hydrolysate by consecutive chromatography and electr ||| ref 44 = [44]; doi:10.1016/j.jff.2015.03.045; 44. Chi C.F. Hu F.Y. Wang B. Li T. Ding G.F. Antioxidant and anticancer peptides from protein hydrolysate of blood clam ( Tegillarca granosa ) muscle J. Funct. Foods 2015 15 301 313 10.1016/j.jff.2015 ||| ref 42 = [42]; PMID 35621976; doi:10.3390/md20050325; 42. Sheng Y. Qiu Y.T. Wang Y.M. Chi C.F. Wang B. Novel antioxidant collagen peptides of Siberian sturgeon ( Acipenser baerii ) cartilages: The preparation, characterization, and cytoprotection of H 2 ||| ref 45 = [45]; PMID 23411302; doi:10.1016/j.foodchem.2012.12.002; 45. Wang B. Li L. Chi C.F. Ma J.H. Luo H.Y. Xu Y.F. Purification and Characterization of a novel antioxidant peptide derived from blue mussel ( Mytilus edulis ) protein hydrolysate Food Chem. 2013 138 ||| ...
[3] = parameters: method as in 10 sources, ref 51 = [51]; doi:10.1016/j.jff.2015.04.042; 51. Cai L. Wu X. Zhang Y. Li X. Ma S. Li J. Purification and characterization of three antioxidant peptides from protein hydrolysate of grass carp ( Ctenopharyngodon idella ) skin J. Funct. Foods 2015 ||| ref 42 = [42]; PMID 35621976; doi:10.3390/md20050325; 42. Sheng Y. Qiu Y.T. Wang Y.M. Chi C.F. Wang B. Novel antioxidant collagen peptides of Siberian sturgeon ( Acipenser baerii ) cartilages: The preparation, characterization, and cytoprotection of H 2 ||| ref 24 = [24]; PMID 35127795; doi:10.3389/fnut.2021.813780; 24. Wang J. Wang Y.M. Li L.Y. Chi C.F. Wang B. Twelve antioxidant peptides from protein hydrolysate of Skipjack tuna ( Katsuwonus pelamis ) roe prepared by flavourzyme: Purification, sequence identifi ||| ref 48 = [48]; PMID 31035632; doi:10.3390/md17050251; 48. Yang X.R. Qiu Y.T. Zhao Y.Q. Chi C.F. Wang B. Purification and characterization of antioxidant peptides derived from protein hydrolysate of the marine bivalve mollusk Tergillarca granosa Mar Drugs ||| ref 43 = [43]; doi:10.1016/j.foodres.2010.02.009; 43. You L. Zhao M. Regenstein J.M. Ren J. Purification and identification of antioxidant peptides from loach ( Misgurnus anguillicaudatus ) protein hydrolysate by consecutive chromatography and electr ||| ...

Row | Substance | EC50 O2^−· [1] [µg/mL] | EC50 DPPH· [2] [µg/mL] | EC50 HO· [3] [µg/mL]
1 | EPLSD [literature antioxidant peptide from blood cockle] | 2040 | – | –
2 | YSKT [literature antioxidant peptide from Eucheuma cottonii] | – | 1710 | –
3 | VGGRP [literature antioxidant peptide from grass carp skin] | – | – | 2060
4 | PSYV [literature antioxidant peptide from pond loach meat] | – | 2640 | 2640
5 | QDHKA [literature antioxidant peptide from tuna milts] | – | – | 536
6 | WLDPDG [literature antioxidant peptide from T. granosa] | – | – | 1540
7 | LKQELEDLLEKQE [literature antioxidant peptide from Pacific oyster] | – | – | 46
8 | YPPAK [literature antioxidant peptide from Mytilus edulis] | 72 | 2620 | 228
9 | GFYAA [literature antioxidant peptide from Miichthys miiuy swim bladders] | 3030 | – | –
10 | QAEP [literature antioxidant peptide from tuna roes] | 2916 | – | –
11 | NGLEGLK [literature antioxidant peptide from giant squid] | 420 | – | –
12 | EGPFGPEG [literature antioxidant peptide from redlip croaker scales] | 470 | 370 | –
13 | NADFGLNGLEGLA [literature antioxidant peptide from giant squid] | – | – | 612
14 | GFIGPTE [literature antioxidant peptide from redlip croaker scales] | 740 | 450 | –
15 | IELFPGLP [literature antioxidant peptide from Siberian sturgeon cartilages] | – | 1380 | 1630
16 | GPEGPMGLE [literature antioxidant peptide from redlip croaker scales] | 620 | 590 | 450
17 | TTANIEDRR [literature antioxidant peptide from salmon pectoral fin] | – | 2500 | –
18 | FYKA [literature antioxidant peptide from Eucheuma cottonii] | 1910 | 2560 | –
19 | SLPY [literature antioxidant peptide from Antarctic krill] | – | – | 826
20 | VPDDD [literature antioxidant peptide from Miichthys miiuy swim bladders] | 4110 | – | –
21 | FIMGPY [literature antioxidant peptide from skate cartilages] | 1610 | – | –
22 | EYEA [literature antioxidant peptide from Antarctic krill] | 793 | – | 946
23 | PYGAKG [literature antioxidant peptide from S. niphonius skins] | 800 | – | –
24 | YAVT [literature antioxidant peptide from Eucheuma cottonii] | 560 | – | –
